Assay results: publication PMC5727260, “The Sam-Sam interaction between Ship2 and the EphA2 receptor: design and analysis of peptide inhibitors” (Scientific Reports, 2017)
Positions of bridges follow the written chain, without caps; N, C: chain ends. Residues, ends and D or L forms follow the SMILES beside them. Chains are numbered I, II in the order given.

What was measured:
[1] = biological target: T1, Ship2-Sam (Homo sapiens, UniProt O15357); assay: SPR binding of peptides to immobilized Ship2-Sam; details: for SPR binding to Ship2-Sam (RUmax): RUmax at 30 and 100 µM peptide, normalized for molecular weight
T1 construct: Its C-terminal sterile alpha motif domain (Ship2-Sam); made in house; host or cells: E. coli
T1 sequence (O15357 1196-1258 limits assumed): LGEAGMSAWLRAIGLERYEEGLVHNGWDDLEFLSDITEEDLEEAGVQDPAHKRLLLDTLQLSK
Experimental: In order to investigate the interaction with Ship2-Sam, all peptides were analysed by SPR experiments (Figs 2, 3 and S5).
SPR experiments were conducted as previously reported.
SPR assays were conducted with the following parameters: (i) flow: 20 μL/min, (ii) contact time: 4.5 min; (iii) running buffer: HBS (HEPES (10 mM), NaCl (150 mM), EDTA (3 mM), pH 7.4).
Reference channel signals were subtracted as blanks and the software BIAevaluation (version 4.1, GE Healthcare) was employed to estimate kinetic and thermodynamic parameters of the complexes.

[2] = biological target: EphA2 SAM (Homo sapiens) (UniProt P29317); assay: ITC; details: cited from earlier work
Chain of EphA2 SAM (Homo sapiens) (P29317 901-971): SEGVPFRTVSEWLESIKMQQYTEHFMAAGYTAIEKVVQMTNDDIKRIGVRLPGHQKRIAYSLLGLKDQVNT

SPR binding to Ship2-Sam (RUmax) [1]	SPR sensorgrams, saturation ([1]; wider concentration range (Fig. S5b))	Compound	Kd [2]
not able to bind Ship2-Sam	–	Ac-KRIAYKRIAY-NH2 [(KRI)2]	–
–	–	Ship2 SAM (from UniProt O15357)	750 nM
not able to bind Ship2-Sam	–	Ac-GHQKRIAY-NH2 [KRI]	–

Compound	SPR binding to Ship2-Sam (RUmax) [1]	SPR sensorgrams, saturation ([1]; wider concentration range (Fig. S5b))	Kd [2]
CC[C@H](C)[C@H](NC(=O)[C@H](CCCNC(=N)N)NC(=O)[C@H](CCCCN)NC(C)=O)C(=O)NCC(=O)N[C@H](C(=O)N[C@@H](CCCNC(=N)N)C(=O)N[C@@H](CC(C)C)C(=O)N1CCC[C@H]1C(=O)NCC(=O)N[C@@H](Cc1c[nH]cn1)C(=O)N[C@@H](CCC(N)=O)C(=O)N[C@@H](CCCCN)C(=O)N[C@@H](CCCNC(=N)N)C(=O)N[C@@H](CSSC[C@H](NC(=O)[C@H](CO)NC(C)=O)C(=O)N[C@@H](CCCCN)C(=O)N[C@@H](CCSC)C(=O)N[C@@H](CCC(N)=O)C(=O)N[C@@H](CCC(N)=O)C(N)=O)C(=O)N[C@@H](C)C(=O)N[C@@H](Cc1ccc(O)cc1)C(=O)N[C@@H](CO)C(=O)N[C@@H](CC(C)C)C(=O)N[C@@H](CC(C)C)C(=O)NCC(=O)N[C@@H](CC(C)C)C(=O)N[C@@H](CCCCN)C(=O)N[C@@H](CC(=O)O)C(=O)N[C@@H](CCC(N)=O)C(=O)N[C@H](C(N)=O)C(C)C)C(C)C [S13-SS] (I: Ac-KRIGVRLPGHQKRCAYSLLGLKDQV-NH2 / II: Ac-SCKMQQ-NH2; disulfide I:14-II:2)	significant dose-response signal variations	does not reach saturation	–
